Experimental data taken from patent publication US4267180A, “Novel antibacterial amide compounds and process means for producing the same” (Warner-Lambert Company, priority 1980, dated 1981).

Columns and labels:
Experiment in all cases: Minimal Inhibitory Concentration, in vitro
Format in all cases: cell-based
Parameters in all cases: unit not given here
Proteus Vulgaris 1810 = system: Proteus Vulgaris 1810
Text: (§1) The compounds of the invention are new chemical compounds that are useful as pharmacological agents and especially as broad spectrum antibacterial agents. They are active in vitro against strains of both gram-positive and gram-negative bacteria.
(§2) Minimal Inhibitory Concentration

[1] = system: Enterobacter Cloacae IMM-11
Text: as §1, §2

[2] = system: Pseudomonas Aeruginosa #28
Text: as §1, §2

[3] = system: Klebsiella Pneumoniae MGH-2
Text: as §1, §2

[4] = system: Pseudomonas Aeruginosa UI-18
Text: as §1, §2

[5] = system: Serratia Marcescens IMM-16
Text: as §1, §2

Staph Aureus UC-76 = system: Staph Aureus UC-76
Text: as §1, §2

Which “Minimal Inhibitory Concentration” value (Proteus Vulgaris 1810) does the source give for CC(=O)N1CCCC1C(=O)Nc1ccc(-c2ncc(C(=O)N[C@@H](C(=O)N[C@@H]3C(=O)N4[C@@H]3SC(C)(C)[C@@H]4C(=O)O)c3ccc(O)cc3)c(O)n2)cc1 (mixture of isomers) [N-Acetyl-DL-Prolyl, N-[2-[4-(N-Acetyl-DL-prolylamino)phenyl]-4-hydroxy-5-pyrimidinylcarbonyl]amoxicillin] here?
Its value is 1.6.

What about the “Minimal Inhibitory Concentration” value [1] of the same molecule?
Its value is 12.5.

And the “Minimal Inhibitory Concentration” value [2]?
Its value is 1.6.

What about the “Minimal Inhibitory Concentration” value [3] of the same molecule?
Its value is 50.

What about the “Minimal Inhibitory Concentration” value [4] of the same molecule?
The value was 1.6.

What about the “Minimal Inhibitory Concentration” value [5] of the same molecule?
The value was 12.5.

What about the “Minimal Inhibitory Concentration” value (Staph Aureus UC-76) of the same molecule?
Its value is 0.8.
